Results as given in article PMC10845951, “Characterization of a selective, iron-chelating antifungal compound that disrupts fungal metabolism and synergizes with fluconazole” (Microbiology Spectrum, 2024).

How the values were obtained:
[1] = test system: Candida glabrata (ATCC15545; JEY10028) wild type; assay: Compound screening: proliferation (OD600, 24 h); format: cell-based; conditions: wild-type C. glabrata (JEY10028), SD media
Procedure: For experiments, yeast cells were routinely cultured in YPD media and incubated at 30°C overnight. The cultures were refreshed the next day for 2–3 h in YNB −iron (0.69% yeast nitrogen base without amino acids or iron, with 2% dextrose) media, unless stated, at the same temperature. After incubation, the optical density (OD600) of the cell cultures was measured and adjusted to 0.15.
The collismycin compounds were provided by EntreChem (Spain) at stock solutions of 20 mM in DMSO and stored at −20°C. For serial dilutions of the compounds in clear 96-well plates, intermediate stock concentrations of 100 µM of compound (100 µL for each technical replicate) were prepared in YNB −iron media unless otherwise specified, and 1:1 serial dilutions were performed using a multi-channel pipette. Fifty microliters of cell culture (OD600 = 0.15) were added to the wells containing the compounds, for a total volume of 150 µL. The final concentrations in the wells (with three technical replicates) were equivalent to 0.5, 1, 2.1, 4.2, 8.4, 16.7, 33.3, and 66.6 µM. The OD600 of each well was quantified, and the plates were incubated inside plastic bags (to prevent evaporation) at 30°C for 24 h, after which the final OD600 was measured. The EC50 was calculated using the four-parameter log logistic function with the drc package in R ([57]).

[2] = test system: C. albicans WT; conditions: 24 h
[3] = Candida albicans, read-out: C. albicans WT Inhibition (%)

Structure (SMILES)	antifungal activity [1]	susceptibility to fluconazole alone ([2]; YNB −iron)	inhibition at 3.13 µM [2, 3] [%]	inhibition at 6.25 µM [2, 3] [%]	inhibition at 25 µM [2, 3] [%]	inhibition at 50 µM [2, 3] [%]	inhibition at 100 µM [2, 3] [%]
COc1cc(-c2ccccn2)nc(CO)c1SC [ColH, collismycin H]	lacked antifungal activity even at very high concentrations						
OC(Cn1cncn1)(Cn1cncn1)c1ccc(F)cc1F [Fluconazole, fluconazole]		only susceptible to high concentrations	-1.65	9.43	14.8	15.4	19.6
